In ChEMBL document CHEMBL1221222, “Analysis of the eukaryotic prenylome by isoprenoid affinity tagging” (Nat Chem Biol, 2009):
Activity calls are given as the source filed them. No cut-off for these calls is given here.

How the values were obtained:
[1] = system: COS-7; assay: Inhibition of RabGGTase in african green monkey COS7 cells assessed as Rab prenylation up to 50 uM by Western blot analysis; format: cell-based
[2] = system: COS-7; assay: Inhibition of RabGGTase in african green monkey COS7 cells assessed as unprenylated Rab22A level by MudPIT analysis; format: cell-based
[3] = system: COS-7; assay: Inhibition of RabGGTase in african green monkey COS7 cells assessed as unprenylated Rab03C level by MudPIT analysis; format: cell-based
[4] = system: COS-7; assay: Inhibition of RabGGTase in african green monkey COS7 cells assessed as unprenylated Rab43 level by MudPIT analysis; format: cell-based
[5] = system: COS-7; assay: Inhibition of RabGGTase in african green monkey COS7 cells assessed as unprenylated Rab34 level by MudPIT analysis; format: cell-based
[6] = system: COS-7; assay: Inhibition of RabGGTase in african green monkey COS7 cells assessed as unprenylated Rab02A level by MudPIT analysis; format: cell-based
[7] = system: COS-7; assay: Inhibition of RabGGTase in african green monkey COS7 cells assessed as unprenylated Rab27A level by MudPIT analysis; format: cell-based
[8] = system: COS-7; assay: Inhibition of isoprenoid biosynthesis in african green monkey COS7 assessed as unprenylated Rab protein level by Western blot analysis; format: functional, cell-based; conditions: Chlorocebus aethiops
[9] = system: COS-7; assay: Inhibition of RabGGTase in african green monkey COS7 cells assessed as unprenylated Rab04A level by MudPIT analysis; format: cell-based
[10] = system: COS-7; assay: Inhibition of RabGGTase in african green monkey COS7 cells assessed as unprenylated Rab31 level by MudPIT analysis; format: cell-based
[11] = system: COS-7; assay: Inhibition of RabGGTase in african green monkey COS7 cells assessed as unprenylated Rab15 level by MudPIT analysis; format: cell-based
[12] = system: COS-7; assay: Inhibition of RabGGTase in african green monkey COS7 cells assessed as unprenylated Rab10 level by MudPIT analysis; format: cell-based
[13] = system: COS-7; assay: Inhibition of RabGGTase in african green monkey COS7 cells assessed as unprenylated Rab14 level by MudPIT analysis; format: cell-based
[14] = system: COS-7; assay: Inhibition of RabGGTase in african green monkey COS7 cells assessed as unprenylated Rab06B level by MudPIT analysis; format: cell-based
[15] = system: COS-7; assay: Inhibition of RabGGTase in african green monkey COS7 cells assessed as unprenylated Rab21 level by MudPIT analysis; format: cell-based
[16] = system: COS-7; assay: Inhibition of RabGGTase in african green monkey COS7 cells assessed as unprenylated Rab05B level by MudPIT analysis; format: cell-based
[17] = system: COS-7; assay: Inhibition of RabGGTase in african green monkey COS7 cells assessed as unprenylated Rab33B level by MudPIT analysis; format: cell-based
[18] = system: COS-7; assay: Inhibition of RabGGTase in african green monkey COS7 cells assessed as unprenylated Rab05C level by MudPIT analysis; format: cell-based
[19] = system: COS-7; assay: Inhibition of RabGGTase in african green monkey COS7 cells assessed as unprenylated Rab13 level by MudPIT analysis; format: cell-based
[20] = system: COS-7; assay: Inhibition of RabGGTase in african green monkey COS7 cells assessed as unprenylated Rab01A level by MudPIT analysis; format: cell-based
[21] = system: COS-7; assay: Inhibition of RabGGTase in african green monkey COS7 cells assessed as unprenylated Rab05A level by MudPIT analysis; format: cell-based
[22] = system: COS-7; assay: Inhibition of RabGGTase in african green monkey COS7 cells assessed as unprenylated Rab11B level by MudPIT analysis; format: cell-based
[23] = system: COS-7; assay: Inhibition of RabGGTase in african green monkey COS7 cells assessed as unprenylated Rab03D level by MudPIT analysis; format: cell-based
[24] = system: COS-7; assay: Inhibition of RabGGTase in african green monkey COS7 cells assessed as unprenylated Rab11A level by MudPIT analysis; format: cell-based
[25] = system: COS-7; assay: Inhibition of RabGGTase in african green monkey COS7 cells assessed as unprenylated Rab41 level by MudPIT analysis; format: cell-based
[26] = system: COS-7; assay: Inhibition of RabGGTase in african green monkey COS7 cells assessed as unprenylated Rab03B level by MudPIT analysis; format: cell-based
[27] = system: COS-7; assay: Inhibition of RabGGTase in african green monkey COS7 cells assessed as unprenylated Rab07a level by MudPIT analysis; format: cell-based
[28] = system: COS-7; assay: Inhibition of RabGGTase in african green monkey COS7 cells assessed as unprenylated Rab09A level by MudPIT analysis; format: cell-based
[29] = system: COS-7; assay: Inhibition of RabGGTase in african green monkey COS7 cells assessed as unprenylated Rab18 level by MudPIT analysis; format: cell-based
[30] = system: COS-7; assay: Inhibition of RabGGTase in african green monkey COS7 cells assessed as unprenylated Rab06A level by MudPIT analysis; format: cell-based
[31] = system: COS-7; assay: Inhibition of RabGGTase in african green monkey COS7 cells assessed as unprenylated Rab35 level by MudPIT analysis; format: cell-based
[32] = system: COS-7; assay: Inhibition of RabGGTase in african green monkey COS7 cells assessed as unprenylated Rab27B level by MudPIT analysis; format: cell-based
[33] = system: COS-7; assay: Inhibition of RabGGTase in african green monkey COS7 cells assessed as unprenylated Rab39A level by MudPIT analysis; format: cell-based
[34] = system: COS-7; assay: Inhibition of RabGGTase in african green monkey COS7 cells assessed as unprenylated Rab03A level by MudPIT analysis; format: cell-based
[35] = system: COS-7; assay: Inhibition of RabGGTase in african green monkey COS7 cells assessed as unprenylated Rab09B level by MudPIT analysis; format: cell-based
[36] = system: COS-7; assay: Inhibition of RabGGTase in african green monkey COS7 cells assessed as unprenylated Rab30 level by MudPIT analysis; format: cell-based
[37] = system: COS-7; assay: Inhibition of RabGGTase in african green monkey COS7 cells assessed as unprenylated Rab37 level by MudPIT analysis; format: cell-based
[38] = system: COS-7; assay: Inhibition of RabGGTase in african green monkey COS7 cells assessed as unprenylated Rab39B level by MudPIT analysis; format: cell-based
[39] = system: COS-7; assay: Inhibition of RabGGTase in african green monkey COS7 cells assessed as unprenylated Rab02B level by MudPIT analysis; format: cell-based
[40] = system: COS-7; assay: Inhibition of RabGGTase in african green monkey COS7 cells assessed as unprenylated Rab01B level by MudPIT analysis; format: cell-based
[41] = system: COS-7; assay: Inhibition of RabGGTase in african green monkey COS7 cells assessed as unprenylated Rab08A level by MudPIT analysis; format: cell-based
[42] = system: COS-7; assay: Inhibition of RabGGTase in african green monkey COS7 cells assessed as unprenylated Rab04B level by MudPIT analysis; format: cell-based
[43] = system: COS-7; assay: Inhibition of RabGGTase in african green monkey COS7 cells assessed as unprenylated Rab08B level by MudPIT analysis; format: cell-based
[44] = system: COS-7; assay: Inhibition of RabGGTase in african green monkey COS7 cells assessed as unprenylated Rab06C level by MudPIT analysis; format: cell-based
[45] = system: COS-7; assay: Inhibition of FTase in african green monkey COS7 cells assessed as protein prenylation at 100 uM by Western blot analysis; format: cell-based
[46] = system: Protein farnesyltransferase subunit beta (Homo sapiens), P49356 [W102T,Y154T,Y205T]; assay: Binding affinity to FTase W102T/Y154T/Y205T mutant assessed as prenylation of dansyl-labeled GCVLL by fluorescence based assay
[47] = system: Geranylgeranyl transferase type-1 subunit beta (Homo sapiens), P53609 [F52Y,F53Y,Y126T]; assay: Binding affinity to GGTase-1 F52Y/F53Y/Y126T mutant assessed as prenylation of dansyl-labeled GCVLS by fluorescence based assay
[48] = system: Protein farnesyltransferase subunit beta (Homo sapiens), P49356 [W102T,Y154T,Y205T]; assay: Binding affinity at FTase W102T/Y154T/Y205T mutant assessed as prenylation of dansyl-labeled GCVLS by fluorescence based assay
[49] = system: Geranylgeranyl transferase type-1 subunit beta (Homo sapiens), P53609 [F52Y,F53Y,Y126T]; assay: Binding affinity to GGTase-1 F52Y/F53Y/Y126T mutant assessed as prenylation of dansyl-labeled GCVLL by fluorescence based assay
[50] = system: COS-7; assay: Inhibition of FTase in african green monkey COS7 cells assessed as protein prenylation at 15 uM by Western blot analysis; format: cell-based
[51] = system: COS-7; assay: Inhibition of GGTase-1 in african green monkey COS7 cells assessed as protein prenylation at >5 uM by Western blot analysis; format: cell-based
[52] = system: COS-7; assay: Inhibition of RabGGTase in african green monkey COS7 cells assessed as Rab prenylation by Western blot analysis; format: cell-based

Sequence of Protein farnesyltransferase subunit beta (Homo sapiens), P49356 [W102T,Y154T,Y205T] (P49356 whole entry W102T/Y154T/Y205T): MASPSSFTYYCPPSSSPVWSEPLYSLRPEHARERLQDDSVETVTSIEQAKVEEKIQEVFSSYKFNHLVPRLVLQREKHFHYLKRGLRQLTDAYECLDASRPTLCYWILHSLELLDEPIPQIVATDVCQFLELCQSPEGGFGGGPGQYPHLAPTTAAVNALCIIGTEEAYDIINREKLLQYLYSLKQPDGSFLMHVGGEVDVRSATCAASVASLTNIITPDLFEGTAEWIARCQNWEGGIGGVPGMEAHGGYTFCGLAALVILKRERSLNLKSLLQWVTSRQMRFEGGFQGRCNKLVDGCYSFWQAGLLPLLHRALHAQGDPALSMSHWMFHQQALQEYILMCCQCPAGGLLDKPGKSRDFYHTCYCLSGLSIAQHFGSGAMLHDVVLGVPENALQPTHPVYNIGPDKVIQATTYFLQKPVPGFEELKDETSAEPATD
Sequence of Geranylgeranyl transferase type-1 subunit beta (Homo sapiens), P53609 [F52Y,F53Y,Y126T] (P53609 whole entry F52Y/F53Y/Y126T): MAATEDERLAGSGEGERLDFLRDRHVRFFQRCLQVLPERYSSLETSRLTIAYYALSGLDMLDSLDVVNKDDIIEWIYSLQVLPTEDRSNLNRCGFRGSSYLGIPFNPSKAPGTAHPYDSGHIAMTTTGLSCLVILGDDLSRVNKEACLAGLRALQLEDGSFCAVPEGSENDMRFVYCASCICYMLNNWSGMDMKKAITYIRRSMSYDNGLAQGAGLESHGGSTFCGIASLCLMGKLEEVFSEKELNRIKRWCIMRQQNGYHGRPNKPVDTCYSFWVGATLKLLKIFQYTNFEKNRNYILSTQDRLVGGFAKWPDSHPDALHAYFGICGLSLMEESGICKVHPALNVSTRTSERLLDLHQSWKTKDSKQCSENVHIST

CCCCCCS[C@H]1[C@@H](C(=O)O)[C@H](c2ccc(Br)cc2)N(S(=O)(=O)c2ccc(C)cc2)[C@@H]1CCC
inhibition [1]: inactive

CCC[C@@H]1[C@@H](Sc2ccc(OC)cc2)[C@@H](C(=O)O)[C@H](c2ccc(Br)cc2)N1S(=O)(=O)c1ccc(C)cc1
inhibition [1]: inactive

CC[C@H](C)C(=O)O[C@H]1CCC=C2C=C[C@H](C)[C@H](CC[C@@H]3C[C@@H](O)CC(=O)O3)[C@H]21
Activity [2]: 0.8 pmol
Activity [3]: 0.4 pmol
Activity [4]: 0.2 pmol
Activity [5]: 0.1 pmol
Activity [6]: 1.2 pmol
Activity [7]: 0.1 pmol
inhibition [8]: Active
Activity [9]: 0.2 pmol
Activity [10]: 0.3 pmol
Activity [11]: 0.1 pmol
Activity [12]: 1 pmol
Activity [13]: 1.5 pmol
Activity [14]: 0.6 pmol
Activity [15]: 0.6 pmol
Activity [16]: 1.1 pmol
Activity [17]: 0.2 pmol
Activity [18]: 1.6 pmol
Activity [19]: 0.4 pmol
Activity [20]: 1.7 pmol
Activity [21]: 1.3 pmol
Activity [22]: 1.5 pmol
Activity [23]: 1.1 pmol
Activity [24]: 1.2 pmol
Activity [25]: 0.2 pmol
Activity [26]: 0.4 pmol
Activity [27]: 1.7 pmol
Activity [28]: 0.8 pmol
Activity [29]: 0.7 pmol
Activity [30]: 0.8 pmol
Activity [31]: 0.6 pmol
Activity [32]: 0.1 pmol
Activity [33]: 0.2 pmol
Activity [34]: 0.7 pmol
Activity [35]: 0.3 pmol
Activity [36]: 0.2 pmol
Activity [37]: 0.2 pmol
Activity [38]: 0.2 pmol
Activity [39]: 0.5 pmol
Activity [40]: 1.8 pmol
Activity [41]: 0.6 pmol
Activity [42]: 0.2 pmol
Activity [43]: 0.4 pmol
Activity [44]: 0.2 pmol

CSCC[C@H](NC(=O)[C@H](Cc1ccccc1)NC[C@@H](NC[C@@H](N)CS)C(C)C)C(=O)O
inhibition [45]: inactive

CCCCCCS[C@H]1[C@@H](C(=O)O)[C@H](c2ccc(Br)cc2)N(S(=O)(=O)c2ccc(C)cc2)[C@@H]1CCCCCC
inhibition [1]: inactive

CC(C)=CCC/C(C)=C/CC/C(C)=C/CC/C(C)=C/COP(=O)(O)OP(=O)(O)O
Activity [46]: inactive
Activity [47]: inactive
Activity [48]: inactive
Activity [49]: inactive

COC(=O)[C@H](CC(C)C)NC(=O)c1ccc(NC[C@@H](N)CS)cc1-c1cccc2ccccc12
inhibition [50]: Active
inhibition [51]: Active
inhibition [52]: inactive
